What was measured:
Details in all cases: exposure time: 72 h
E13 [1] = patient-derived glioblastoma stem cells of classical subtype; assay: phenotypic distance (Euclidean, principal components) from DMSO controls (arbitrary units); higher = stronger morphological change
E28 [2] = patient-derived glioblastoma stem cells of classical subtype; assay: as above
FT3469 [3] = normal neural stem cell line; assay: as above
E57 [4] = patient-derived glioblastoma stem cells of mesenchymal subtype; assay: as above
E34 [5] = patient-derived glioblastoma stem cells of proneural subtype; assay: as above
E31 [6] = patient-derived glioblastoma stem cells of proneural subtype; assay: as above
E21 [7] = patient-derived glioblastoma stem cells of mesenchymal subtype; assay: as above
E13 [8] = assay: surviving fraction (nuclei count normalised to DMSO); higher = more cells surviving (less toxic)
E28 [9] = assay: as above
FT3469 [10] = assay: as above
E57 [11] = assay: as above
E34 [12] = assay: as above
E31 [13] = assay: as above
E21 [14] = assay: as above
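Wherever phenotypic distance (Euclidean, principal components) from DMSO controls is given: cell Painting imaging in 384-well plates, CellProfiler features reduced to at least 20 principal components, Euclidean distance versus same-plate DMSO vehicle wells (0.1% v/v), median over six images per well.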
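Wherever surviving fraction (nuclei count normalised to DMSO) is given: nuclei counted by high-content imaging of Hoechst-stained cells in laminin-coated 384-well plates, relative to 0.1% DMSO vehicle wells, with staurosporine as cell-death control.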

CCOC(=O)C1=C(C)NC(C)=C(C(=O)OCC)C1c1c(F)c(F)c(F)c(F)c1F [Nemadipine-A]
phenotypic distance (E13 [1]; 4.1 nM): 0.957
phenotypic distance (E13 [1]; 12.3 nM): 0.892
phenotypic distance (E13 [1]; 37 nM): 0.571
phenotypic distance (E13 [1]; 111.1 nM): 0.762
phenotypic distance (E13 [1]; 333.3 nM): 0.542
phenotypic distance (E13 [1]; 1000 nM): 0.692
phenotypic distance (E13 [1]; 3000 nM): 0.903
phenotypic distance (E28 [2]; 4.1 nM): 0.43
phenotypic distance (E28 [2]; 12.3 nM): 0.613
phenotypic distance (E28 [2]; 37 nM): 0.807
phenotypic distance (E28 [2]; 111.1 nM): 0.686
phenotypic distance (E28 [2]; 333.3 nM): 0.703
phenotypic distance (E28 [2]; 1000 nM): 0.642
phenotypic distance (E28 [2]; 3000 nM): 1.14
phenotypic distance (FT3469 [3]; 4.1 nM): 0.624
phenotypic distance (FT3469 [3]; 12.3 nM): 0.608
phenotypic distance (FT3469 [3]; 37 nM): 0.488
phenotypic distance (FT3469 [3]; 111.1 nM): 0.574
phenotypic distance (FT3469 [3]; 333.3 nM): 0.712
phenotypic distance (FT3469 [3]; 1000 nM): 0.892
phenotypic distance (FT3469 [3]; 3000 nM): 1.01
phenotypic distance (E57 [4]; 4.1 nM): 0.523
phenotypic distance (E57 [4]; 12.3 nM): 0.695
phenotypic distance (E57 [4]; 37 nM): 0.79
phenotypic distance (E57 [4]; 111.1 nM): 0.477
phenotypic distance (E57 [4]; 333.3 nM): 1.46
phenotypic distance (E57 [4]; 1000 nM): 0.54
phenotypic distance (E57 [4]; 3000 nM): 1.46
phenotypic distance (E34 [5]; 4.1 nM): 0.666
phenotypic distance (E34 [5]; 12.3 nM): 0.857
phenotypic distance (E34 [5]; 37 nM): 0.641
phenotypic distance (E34 [5]; 111.1 nM): 0.619
phenotypic distance (E34 [5]; 333.3 nM): 0.843
phenotypic distance (E34 [5]; 1000 nM): 0.698
phenotypic distance (E34 [5]; 3000 nM): 0.734
phenotypic distance (E31 [6]; 4.1 nM): 0.932
phenotypic distance (E31 [6]; 12.3 nM): 0.387
phenotypic distance (E31 [6]; 37 nM): 0.906
phenotypic distance (E31 [6]; 111.1 nM): 0.74
phenotypic distance (E31 [6]; 333.3 nM): 1.01
phenotypic distance (E31 [6]; 1000 nM): 0.415
phenotypic distance (E31 [6]; 3000 nM): 0.913
phenotypic distance (E21 [7]; 4.1 nM): 0.903
phenotypic distance (E21 [7]; 12.3 nM): 0.665
phenotypic distance (E21 [7]; 37 nM): 0.548
phenotypic distance (E21 [7]; 111.1 nM): 0.745
phenotypic distance (E21 [7]; 333.3 nM): 0.572
phenotypic distance (E21 [7]; 1000 nM): 0.681
phenotypic distance (E21 [7]; 3000 nM): 1.4
surviving fraction (E13 [8]; 4.1 nM): 0.797
surviving fraction (E13 [8]; 12.3 nM): 0.944
surviving fraction (E13 [8]; 37 nM): 0.915
surviving fraction (E13 [8]; 111.1 nM): 0.841
surviving fraction (E13 [8]; 333.3 nM): 0.948
surviving fraction (E13 [8]; 1000 nM): 1.09
surviving fraction (E13 [8]; 3000 nM): 0.764
surviving fraction (E28 [9]; 4.1 nM): 0.9
surviving fraction (E28 [9]; 12.3 nM): 1.03
surviving fraction (E28 [9]; 37 nM): 0.81
surviving fraction (E28 [9]; 111.1 nM): 0.996
surviving fraction (E28 [9]; 333.3 nM): 0.945
surviving fraction (E28 [9]; 1000 nM): 0.934
surviving fraction (E28 [9]; 3000 nM): 0.704
surviving fraction (FT3469 [10]; 4.1 nM): 1.03
surviving fraction (FT3469 [10]; 12.3 nM): 0.928
surviving fraction (FT3469 [10]; 37 nM): 1.17
surviving fraction (FT3469 [10]; 111.1 nM): 1.02
surviving fraction (FT3469 [10]; 333.3 nM): 0.866
surviving fraction (FT3469 [10]; 1000 nM): 1.1
surviving fraction (FT3469 [10]; 3000 nM): 0.804
surviving fraction (E57 [11]; 4.1 nM): 0.945
surviving fraction (E57 [11]; 12.3 nM): 1.07
surviving fraction (E57 [11]; 37 nM): 1.04
surviving fraction (E57 [11]; 111.1 nM): 0.954
surviving fraction (E57 [11]; 333.3 nM): 1.03
surviving fraction (E57 [11]; 1000 nM): 0.984
surviving fraction (E57 [11]; 3000 nM): 0.77
surviving fraction (E34 [12]; 4.1 nM): 1.01
surviving fraction (E34 [12]; 12.3 nM): 0.767
surviving fraction (E34 [12]; 37 nM): 1.14
surviving fraction (E34 [12]; 111.1 nM): 1.16
surviving fraction (E34 [12]; 333.3 nM): 1.13
surviving fraction (E34 [12]; 1000 nM): 0.926
surviving fraction (E34 [12]; 3000 nM): 0.909
surviving fraction (E31 [13]; 4.1 nM): 1.15
surviving fraction (E31 [13]; 12.3 nM): 1.05
surviving fraction (E31 [13]; 37 nM): 1.01
surviving fraction (E31 [13]; 111.1 nM): 1.26
surviving fraction (E31 [13]; 333.3 nM): 1.3
surviving fraction (E31 [13]; 1000 nM): 1.15
surviving fraction (E31 [13]; 3000 nM): 1.13
surviving fraction (E21 [14]; 4.1 nM): 0.897
surviving fraction (E21 [14]; 12.3 nM): 0.936
surviving fraction (E21 [14]; 37 nM): 0.991
surviving fraction (E21 [14]; 111.1 nM): 0.971
surviving fraction (E21 [14]; 333.3 nM): 0.924
surviving fraction (E21 [14]; 1000 nM): 0.931
surviving fraction (E21 [14]; 3000 nM): 0.838

From the supplement of paper PMC13207355
